Measurements taken from patent US12492187B2, “Factor XI activation inhibitors” (Merck Sharp & Dohme LLC, priority 2020, dated 2025).
Structures can show the parent of a compound that is named as a salt.

Target: T1, Human coagulation factor (F)XI (Homo sapiens, UniProt P03951)
T1 construct: purchased Haematologic Technologies Inc. (FXI); Enzyme Research Laboratories (FXIIa) HCXI-150 (FXI); HFXIIa (FXIIa)
Experiment: Inhibition of FXIIa mediated activation of FXI (activation of human Factor XI to XIa by human Factor α-XIIa)
Assay type: biochemical
Details: human FXI pre-incubated with compound 30 min at 22° C., activation by human FXIIa 60 min, z-GPR-AFC substrate, fluorescence 405/510 nm, 4 parameter logistic fit; read-out: Inhibition of FXIIa meditated activation of FXI
Procedure: Inhibition of FXIIa Mediated Activation of FXI
Activation of Human Factor XI to XIa by Human Factor α-XIIa
Assay was performed in 50 mM HEPES, 150 mM NaCl, 5 mM CaCl2, 0.1% PEG-8000, pH 7.4 buffer in black, flat-bottom, polystyrene microplates (Corning, Cat #3573). Serial dilutions (10-point, 3.333-fold) of the test compounds delivered as 10 mM DMSO stocks were prepared in the Labcyte Echo-qualified PP 384 well microplates (Labcyte, Cat #P-05525). Human coagulation factor (F)XI (Haematologic Technologies Inc., Cat #HCXI-150, concentration 46 nM, 19.5 uL) was pre-incubated with 0.5 uL of the test compounds for 30 min at 22° C. The activation was initiated by addition of 10 uL of human coagulation factor (F)XIIa (Enzyme Research Laboratories, Cat #HFXIIa, concentration 30 nM) and reaction proceeded for 60 min at 22° C., after which it was quenched by addition of a selective inhibitor of FXIIa (Compound 54 in WO2018093695) concentration 600 uM in DMSO, 1 uL). 10 min after the quench, 29 uL of z-GPR-AFC substrate (Sigma, Cat #C0980-10MG, concentration 200 uM) was added into each well and the detection reaction proceeded for 60 min at 22° C. Fluorescence at 405/510 nm was measured in end-point mode using an Envision plate-reader (Perkin Elmer). IDBS Activity Base XE (ABase) analysis using 4 parameter logistic fit was performed to determine Minimum, Maximum, EC50, and Slope Factor for each compound.

T1 sequence (P03951 19-625): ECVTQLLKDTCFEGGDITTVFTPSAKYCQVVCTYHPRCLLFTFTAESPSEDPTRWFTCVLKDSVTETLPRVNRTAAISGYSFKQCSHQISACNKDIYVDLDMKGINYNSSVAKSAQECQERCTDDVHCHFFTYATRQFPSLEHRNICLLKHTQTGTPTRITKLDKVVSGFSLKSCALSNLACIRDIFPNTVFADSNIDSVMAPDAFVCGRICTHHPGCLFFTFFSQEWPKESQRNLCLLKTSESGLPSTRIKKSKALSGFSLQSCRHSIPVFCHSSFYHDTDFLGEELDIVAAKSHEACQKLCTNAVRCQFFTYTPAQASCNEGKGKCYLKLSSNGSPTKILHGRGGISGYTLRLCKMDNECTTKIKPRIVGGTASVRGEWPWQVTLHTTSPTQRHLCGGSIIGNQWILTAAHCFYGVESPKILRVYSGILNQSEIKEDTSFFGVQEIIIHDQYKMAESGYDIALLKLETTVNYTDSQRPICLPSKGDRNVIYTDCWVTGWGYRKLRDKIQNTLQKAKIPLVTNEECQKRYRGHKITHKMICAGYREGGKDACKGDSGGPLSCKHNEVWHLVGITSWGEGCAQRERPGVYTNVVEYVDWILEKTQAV

EC50 [nM] | Structure (SMILES)
39.4 | Cc1cnc(C(=O)N2CCC(C#N)(c3ccccc3)CC2)cc1C(=O)N1CC[C@@H]2c3ccccc3O[C@@H]2C1 (racemic) [Example 2, 1-(4-((4aR,9aS)-1,2,3,4,4a,9a-hexahydrobenzofuro[2,3-c]pyridine-2-carbonyl)-5-methylpicolinoyl)-4-phenylpiperidine-4-carbonitrile and 1-(4-((4aS,9aR)-1,2,3,4,4a,9a-hexahydrobenzofuro[2,3-c]pyridine-2-carbonyl)-5-methylpicolinoyl)-4-phenylpiperidine-4-carbonitrile]
42 | Cc1cnc(C(=O)N2CCC(C#N)(c3ccccc3)CC2)cc1C(=O)N1CCC(N2CCC(F)(F)C2)CC1 [Example 1, 1-(4-(4-(3,3-difluoropyrrolidin-1-yl)piperidine-1-carbonyl)-5-methylpicolinoyl)-4-phenylpiperidine-4-carbonitrile, 2,2,2-trifluoroacetate salt]
61.8 | Cc1cnc(C(=O)N2CCC(C#N)(c3ccccc3)CC2)cc1C(=O)N1CCC(C)(N2CCC(F)(F)C2)CC1 [Example 3, 1-(4-(4-(3,3-difluoropyrrolidin-1-yl)-4-methylpiperidine-1-carbonyl)-5-methylpicolinoyl)-4-phenylpiperidine-4-carbonitrile]
197 | Cc1cnc(C(=O)N2CCC(C#N)(c3ccccc3)CC2)cc1C(=O)N1CC(c2cccc(F)c2)C1 [Example 4, 1-(4-(3-(3-fluorophenyl)azetidine-1-carbonyl)-5-methylpicolinoy1)-4-phenylpiperidine-4-carbonitrile]
30.4 | Cc1cnc(C(=O)N2CCC(C#N)(c3ccccc3)CC2)cc1C(=O)N1CCC(c2ccccc2)CC1 [Example 5, 1-(5-methyl-4-(4-phenylpiperidine-1-carbonyl)picolinoyl)-4-phenylpiperidine-4-carbonitrile]
150 | Cc1cnc(C(=O)N2CCC(C#N)(c3ccccc3)CC2)cc1C(=O)N1CCC(CCc2ccccc2)CC1 [Example 6, 1-(5-methyl-4-(4-phenethylpiperidine-1-carbonyl)picolinoyl)-4-phenylpiperidine-4-carbonitrile]
43.5 | Cc1cnc(C(=O)N2CCC(C#N)(c3ccccc3)CC2)cc1C(=O)N(CCC1(O)CCCC1)C1CCC1 [Example 7, 2-(4-cyano-4-phenylpiperidine-1-carbonyl)-N-cyclobutyl-N-(2-(1-hydroxycyclopentyl)ethyl)-5-methylisonicotinamide]
119 | Cc1cnc(C(=O)N2CCC(C#N)(c3ccccc3)CC2)cc1C(=O)N1CC(c2ccccc2)C1 [Example 8, 1-(5-methyl-4-(3-phenylazetidine-1-carbonyl)picolinoyl)-4-phenylpiperidine-4-carbonitrile]
107 | Cc1cnc(C(=O)N2CCC(C#N)(c3ccccc3)CC2)cc1C(=O)N1CC(c2ccc(F)cc2)C1 [Example 9, 1-(4-(3-(4-fluorophenyl)azetidine-1-carbonyl)-5-methylpicolinoyl)-4-phenylpiperidine-4-carbonitrile]
74.1 | Cc1cnc(C(=O)N2CCC(C#N)(c3ccccc3)CC2)cc1C(=O)N1CCC(Cc2ccccc2)CC1 [Example 10, 1-(4-(4-benzylpiperidine-1-carbonyl)-5-methylpicolinoyl)-4-phenylpiperidine-4-carbonitrile]
164 | Cc1cnc(C(=O)N2CCC(C#N)(c3ccccc3)CC2)cc1C(=O)N1CCN(C2CCCC2)C(=O)C1 [Example 11, 1-(4-(4-cyclopentyl-3-oxopiperazine-1-carbonyl)-5-methylpicolinoyl)-4-phenylpiperidine-4-carbonitrile]
137 | Cc1cnc(C(=O)N2CCC(C#N)(c3ccccc3)CC2)cc1C(=O)N1CC2CC(C1)C2(F)c1ccccc1 (stereo not drawn) [Example 12, 1-(4-(6-fluoro-6-phenyl-3-azabicyclo[3.1.1]heptane-3-carbonyl)-5-methylpicolinoyl)-4-phenylpiperidine-4-carbonitrile]
66.7 | Cc1cnc(C(=O)N2CCC(C#N)(c3ccccc3)CC2)cc1C(=O)N1CC2CC(C1)C2c1ccccc1 (stereo not drawn) [Example 13, 1-(5-methyl-4-(6-phenyl-3-azabicyclo[3.1.1]heptane-3-carbonyl)picolinoyl)-4-phenylpiperidine-4-carbonitrile]
45.1 | Cc1cnc(C(=O)N2CCC(C#N)(c3ccccc3)CC2)cc1C(=O)N1CCC2c3cc(F)ccc3OC2C1 (stereo not drawn) [Example 14, 1-(4-(6-fluoro-1,2,3,4,4a,9a-hexahydrobenzofuro[2,3-c]pyridine-2-carbonyl)-5-methylpicolinoyl)-4-phenylpiperidine-4-carbonitrile]
42.5 | CC(C)(C)C1CCN(C(=O)c2cc(C(=O)N3CCC(C#N)(c4ccccc4)CC3)ncc2C2CC2)CC1 [Example 15, 1-(4-(4-(tert-butyl)piperidine-1-carbonyl)-5-cyclopropylpicolinoyl)-4-phenylpiperidine-4-carbonitrile, 2,2,2-trifluoroacetate salt]
106 | N#CC1(c2ccccc2)CCN(C(=O)c2cc(C(=O)N3CCC4c5ccccc5OC4C3)c(C(F)(F)F)cn2)CC1 (stereo not drawn) [Example 16, 1-(4-(1,2,3,4,4a,9a-hexahydrobenzofuro[2,3-c]pyridine-2-carbonyl)-5-(trifluoromethyl)picolinoyl)-4-phenylpiperidine-4-carbonitrile]
411 | N#CC1(c2ccccc2)CCN(C(=O)c2cc(C(=O)N3CC(c4ccc(F)cc4)C3)c(C(F)(F)F)cn2)CC1 [Example 17, 1-(4-(3-(4-fluorophenyl)azetidine-1-carbonyl)-5-(trifluoromethyl)picolinoyl)-4-phenylpiperidine-4-carbonitrile]
40 | N#CC1(c2ccccc2)CCN(C(=O)c2cc(C(=O)N3CCC(N4CCC(F)(F)C4)CC3)c(C(F)(F)F)cn2)CC1 [Example 18, 1-[4-[4-(3,3-difluoropyrrolidin-1-ium-1-yl)piperidine-1-carbonyl]-5-(trifluoromethyl)pyridine-2-carbonyl]-4-phenyl-piperidine-4-carbonitrile; 2,2,2-trifluoroacetate]
49.3 | Cc1cnc(C(=O)N2CCC(C#N)(c3ccccc3)CC2)cc1C(=O)N1CCC2c3c(F)cc(F)cc3OC2C1 (stereo not drawn) [Example 19, 1-(4-(5,7-difluoro-1,2,3,4,4a,9a-hexahydrobenzofuro[2,3-c]pyridine-2-carbonyl)-5-methylpicolinoyl)-4-phenylpiperidine-4-carbonitrile]
37.1 | Cc1cnc(C(=O)N2CCC(C#N)(c3ccccc3)CC2)cc1C(=O)N1CCC2c3ccc(F)cc3OC2C1 (stereo not drawn) [Example 20, 1-[4-(7-fluoro-3,4,4a,9a-tetrahydro-1H-benzofuro[2,3-c]pyridine-2-carbonyl)-5-methyl-pyridin-1-ium-2-carbonyl]-4-phenyl-piperidine-4-carbonitrile; 2,2,2-trifluoroacetate]
199 | COc1ccc2c(c1)OC1CN(C(=O)c3cc(C(=O)N4CCC(C#N)(c5ccccc5)CC4)ncc3C)CCC21 (stereo not drawn) [Example 21, 1-[4-(7-methoxy-3,4,4a,9a-tetrahydro-1H-benzofuro[2,3-c]pyridine-2-carbonyl)-5-methyl-pyridin-1-ium-2-carbonyl]-4-phenyl-piperidine-4-carbonitrile; 2,2,2-trifluoroacetate]
